Key:
[1] = target: T1, CD73 (Homo sapiens (Human), UniProt P21589); type: biochemical; conditions: 1 mM NaH2PO4 in enzyme buffer, CD73 0.3 nM, AMP 15 uM
[2] = target: T1, CD73; assay: MDA-MB-231 Cell Based CD73 Activity Assay (DMEM); conditions: MDA-MB-231-GFP cells, DMEM medium with 10% human plasma, 200 uM AMP

T1 sequence (P21589 27-574): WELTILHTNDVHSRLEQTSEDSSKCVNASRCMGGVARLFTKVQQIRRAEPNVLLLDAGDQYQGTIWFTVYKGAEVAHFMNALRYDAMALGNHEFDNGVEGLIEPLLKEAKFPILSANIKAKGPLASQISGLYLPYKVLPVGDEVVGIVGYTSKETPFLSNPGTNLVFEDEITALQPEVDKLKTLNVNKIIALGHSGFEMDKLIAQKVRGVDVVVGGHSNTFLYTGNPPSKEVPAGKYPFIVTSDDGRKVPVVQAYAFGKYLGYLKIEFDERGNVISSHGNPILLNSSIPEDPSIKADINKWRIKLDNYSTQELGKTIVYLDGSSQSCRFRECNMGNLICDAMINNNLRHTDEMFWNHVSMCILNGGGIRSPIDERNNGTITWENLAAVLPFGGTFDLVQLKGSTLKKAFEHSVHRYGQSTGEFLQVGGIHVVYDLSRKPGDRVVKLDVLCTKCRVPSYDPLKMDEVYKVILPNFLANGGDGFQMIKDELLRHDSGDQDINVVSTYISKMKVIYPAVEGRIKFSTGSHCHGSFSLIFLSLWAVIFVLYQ

Structure (SMILES) | IC50 [1] [nM] | EC50 [2] [nM]
CC(C)(C)NC(=O)O[C@H]1CN(c2cc(-c3c[nH]c(=O)[nH]c3=O)nn3ccnc23)CC1(F)F [Example 544, (S)-1-(6-(2,4-dioxo-1,2,3,4-tetrahydropyrimidin-5-yl)imidazo[1,2-b]pyridazin-8-yl)-4,4-difluoropyrrolidin-3-yl tert-butylcarbamate] | 1.01 | 0.13
O=C(NCC(F)(F)F)O[C@H]1CN(c2cc(-c3c[nH]c(=O)[nH]c3=O)nn3ccnc23)CC1(F)F [Example 545, (S)-1-(6-(2,4-dioxo-1,2,3,4-tetrahydropyrimidin-5-yl)imidazo[1,2-b]pyridazin-8-yl)-4,4-difluoropyrrolidin-3-yl (2,2,2-trifluoroethyl)carbamate] | 0.4 | 0.22
C[C@@H](NC(=O)O[C@H]1CN(c2cc(-c3c[nH]c(=O)[nH]c3=O)nn3ccnc23)CC1(F)F)C(F)(F)F [Example 546, (S)-1-(6-(2,4-dioxo-1,2,3,4-tetrahydropyrimidin-5-yl)imidazo[1,2-b]pyridazin-8-yl)-4,4-difluoropyrrolidin-3-yl ((R)-1,1,1-trifluoropropan-2-yl)carbamate] | 1.23 | 0.69
C[C@H](NC(=O)O[C@H]1CN(c2cc(-c3c[nH]c(=O)[nH]c3=O)nn3ccnc23)CC1(F)F)C(F)(F)F [Example 547, (S)-1-(6-(2,4-dioxo-1,2,3,4-tetrahydropyrimidin-5-yl)imidazo[1,2-b]pyridazin-8-yl)-4,4-difluoropyrrolidin-3-yl ((S)-1,1,1-trifluoropropan-2-yl)carbamate] | 0.31 | 0.13
COC[C@@H](C)NC(=O)O[C@H]1CN(c2cc(-c3c[nH]c(=O)[nH]c3=O)nn3ccnc23)CC1(F)F [Example 548, (S)-1-(6-(2,4-dioxo-1,2,3,4-tetrahydropyrimidin-5-yl)imidazo[1,2-b]pyridazin-8-yl)-4,4-difluoropyrrolidin-3-yl ((R)-1-methoxypropan-2-yl)carbamate] | 0.63 | 0.13
COC[C@H](C)NC(=O)O[C@H]1CN(c2cc(-c3c[nH]c(=O)[nH]c3=O)nn3ccnc23)CC1(F)F [Example 549, (S)-1-(6-(2,4-dioxo-1,2,3,4-tetrahydropyrimidin-5-yl)imidazo[1,2-b]pyridazin-8-yl)-4,4-difluoropyrrolidin-3-yl ((S)-1-methoxypropan-2-yl)carbamate] | 0.99 | 0.28
CC(NC(=O)O[C@H]1CN(c2cc(-c3c[nH]c(=O)[nH]c3=O)nn3ccnc23)CC1(F)F)C(F)F (stereo partly drawn) [Example 550, (S)-1-(6-(2,4-dioxo-1,2,3,4-tetrahydropyrimidin-5-yl)imidazo[1,2-b]pyridazin-8-yl)-4,4-difluoropyrrolidin-3-yl (1,1-difluoropropan-2-yl)carbamate] | 1.67 | 0.83
O=C(NC12CC(C1)C2)O[C@H]1CN(c2cc(-c3c[nH]c(=O)[nH]c3=O)nn3ccnc23)CC1(F)F [Example 551, (S)-1-(6-(2,4-dioxo-1,2,3,4-tetrahydropyrimidin-5-yl)imidazo[1,2-b]pyridazin-8-yl)-4,4-difluoropyrrolidin-3-yl bicyclo[1.1.1]pentan-1-ylcarbamate] | 0.24 | 0.13
N#Cc1cc([C@H]2C[C@@H]2c2cc(-c3c[nH]c(=O)[nH]c3=O)nn3ccnc23)ccc1Cl [Example 553, 2-chloro-5-((1S,2S)-2-(6-(2,4-dioxo-1,2,3,4-tetrahydropyrimidin-5-yl)imidazo[1,2-b]pyridazin-8-yl)cyclopropyl)benzonitrile] | 1.39 | 6.89
O=c1[nH]cc(-c2cc([C@H]3C[C@@H]3c3ccc(C(F)(F)F)cc3)c3nccn3n2)c(=O)[nH]1 [Example 554, 5-(8-((1S,2S)-2-(4-(trifluoromethyl)phenyl)cyclopropyl)imidazo[1,2-b]pyridazin-6-yl)pyrimidine-2,4(1H,3H)-dione] | 1.57 | 12
N#Cc1c(F)cc([C@H]2C[C@@H]2c2cc(-c3c[nH]c(=O)[nH]c3=O)nn3ccnc23)cc1F [Example 557, 4-((1S,2S)-2-(6-(2,4-dioxo-1,2,3,4-tetrahydropyrimidin-5-yl)imidazo[1,2-b]pyridazin-8-yl)cyclopropyl)-2,6-difluorobenzonitrile] | 1.71 | 9.73
N#Cc1ccc([C@H]2C[C@@H]2c2cc(-c3c[nH]c(=O)[nH]c3=O)nn3ccnc23)c(F)c1F [Example 558, 4-((1S,2S)-2-(6-(2,4-dioxo-1,2,3,4-tetrahydropyrimidin-5-yl)imidazo[1,2-b]pyridazin-8-yl)cyclopropyl)-2,3-difluorobenzonitrile] | 2.87 | 20.4
O=c1[nH]cc(-c2cc(N3CC4CC(C3)C4(F)F)c3nccn3n2)c(=O)[nH]1 [Example 575, 5-(8-(6,6-difluoro-3-azabicyclo[3.1.1]heptan-3-yl)imidazo[1,2-b]pyridazin-6-yl)pyrimidine-2,4(1H,3H)-dione] | 57.1 | 142

The remaining lines, values ahead:

IC50 [1] [nM] | EC50 [2] [nM] | Structure (SMILES)
0.97 | 7.77 | COc1cc([C@H]2C[C@@H]2c2cc(-c3c[nH]c(=O)[nH]c3=O)nn3ccnc23)ccc1C#N [Example 559, 4-((1S,2S)-2-(6-(2,4-dioxo-1,2,3,4-tetrahydropyrimidin-5-yl)imidazo[1,2-b]pyridazin-8-yl)cyclopropyl)-2-methoxybenzonitrile]
0.85 | 2.86 | Cc1cc([C@H]2C[C@@H]2c2cc(-c3c[nH]c(=O)[nH]c3=O)nn3ccnc23)ccc1C#N [Example 560, 4-((1S,2S)-2-(6-(2,4-dioxo-1,2,3,4-tetrahydropyrimidin-5-yl)imidazo[1,2-b]pyridazin-8-yl)cyclopropyl)-2-methylbenzonitrile]
0.71 | 3.06 | O=c1[nH]cc(-c2cc([C@H]3C[C@@H]3c3ccc(OC(F)F)cc3)c3nccn3n2)c(=O)[nH]1 [Example 561, 5-(8-((1S,2S)-2-(4-(difluoromethoxy)phenyl)cyclopropyl)imidazo[1,2-b]pyridazin-6-yl)pyrimidine-2,4(1H,3H)-dione]
0.97 | 2.64 | O=c1[nH]cc(-c2cc([C@H]3C[C@@H]3c3ccc4nc(C(F)(F)F)sc4c3)c3nccn3n2)c(=O)[nH]1 [Example 562, 5-(8-((1S,2S)-2-(2-(trifluoromethyl)benzo[d]thiazol-6-yl)cyclopropyl)imidazo[1,2-b]pyridazin-6-yl)pyrimidine-2,4(1H,3H)-dione]
0.66 | 10.6 | N#Cc1ccc([C@H]2C[C@@H]2c2cc(-c3c[nH]c(=O)[nH]c3=O)nn3ccnc23)cc1C1CC1 [Example 563, 2-cyclopropyl-4-((1S,2S)-2-(6-(2,4-dioxo-1,2,3,4-tetrahydropyrimidin-5-yl)imidazo[1,2-b]pyridazin-8-yl)cyclopropyl)benzonitrile]
1.98 | 9.24 | N#Cc1cc(F)c([C@H]2C[C@@H]2c2cc(-c3c[nH]c(=O)[nH]c3=O)nn3ccnc23)cc1F [Example 565, 4-((1S,2S)-2-(6-(2,4-dioxo-1,2,3,4-tetrahydropyrimidin-5-yl)imidazo[1,2-b]pyridazin-8-yl)cyclopropyl)-2,5-difluorobenzonitrile]
0.78 | 4.46 | N#Cc1ccc([C@H]2C[C@@H]2c2cc(-c3c[nH]c(=O)[nH]c3=O)nn3ccnc23)cc1Cl [Example 566, 2-chloro-4-((1S,2S)-2-(6-(2,4-dioxo-1,2,3,4-tetrahydropyrimidin-5-yl)imidazo[1,2-b]pyridazin-8-yl)cyclopropyl)benzonitrile]
1.73 | 7.93 | Cc1cc([C@H]2C[C@@H]2c2cc(-c3c[nH]c(=O)[nH]c3=O)nn3ccnc23)cc(F)c1C#N [Example 567, 4-((1S,2S)-2-(6-(2,4-dioxo-1,2,3,4-tetrahydropyrimidin-5-yl)imidazo[1,2-b]pyridazin-8-yl)cyclopropyl)-2-fluoro-6-methylbenzonitrile]
6.66 | 11.2 | O=c1[nH]cc(-c2cc(N3CCC4(CCC4)C3)c3nccn3n2)c(=O)[nH]1 [Example 569, 5-(8-(6-azaspiro[3.4]octan-6-yl)imidazo[1,2-b]pyridazin-6-yl)pyrimidine-2,4(1H,3H)-dione]
30.4 | 62.3 | O=c1[nH]cc(-c2cc(N3CCC4(C3)CC(F)(F)C4)c3nccn3n2)c(=O)[nH]1 [Example 571, 5-(8-(2,2-difluoro-6-azaspiro[3.4]octan-6-yl)imidazo[1,2-b]pyridazin-6-yl)pyrimidine-2,4(1H,3H)-dione]
25.3 | 93.9 | COCC1(C)CCN(c2cc(-c3c[nH]c(=O)[nH]c3=O)nn3ccnc23)C1 (centres unmarked) [Example 572, 5-(8-(3-(methoxymethyl)-3-methylpyrrolidin-1-yl)imidazo[1,2-b]pyridazin-6-yl)pyrimidine-2,4(1H,3H)-dione]
1.21 | 7.46 | N#Cc1cc(F)c([C@H]2C[C@@H]2c2cc(-c3c[nH]c(=O)[nH]c3=O)nn3c(F)cnc23)cc1F [Example 573, 4-((1S,2S)-2-(6-(2,4-dioxo-1,2,3,4-tetrahydropyrimidin-5-yl)-3-fluoroimidazo[1,2-b]pyridazin-8-yl)cyclopropyl)-2,5-difluorobenzonitrile]
19.6 | 81.2 | O=c1[nH]cc(-c2cc(N3CCC(C4CC4)C3)c3nccn3n2)c(=O)[nH]1 (centres unmarked) [Example 577, 5-(8-(3-cyclopropylpyrrolidin-1-yl)imidazo[1,2-b]pyridazin-6-yl)pyrimidine-2,4(1H,3H)-dione]
161 | 1870 | O=c1[nH]cc(-c2cc(N3CCC(C4CC(F)(F)C4)C3)c3nccn3n2)c(=O)[nH]1 (centres unmarked) [Example 578, 5-(8-(3-(3,3-difluorocyclobutyl)pyrrolidin-1-yl)imidazo[1,2-b]pyridazin-6-yl)pyrimidine-2,4(1H,3H)-dione]
0.91 | 2.98 | O=c1[nH]cc(-c2cc([C@H]3C[C@@H]3c3ccc(Cl)cn3)c3ncc(F)n3n2)c(=O)[nH]1 [Example 584, 5-(8-((1S,2S)-2-(5-chloropyridin-2-yl)cyclopropyl)-3-fluoroimidazo[1,2-b]pyridazin-6-yl)pyrimidine-2,4(1H,3H)-dione]

From patent US20240043427A1 (Gilead Sciences, Inc., priority 2020, published 2024)
